Peptide text beside a SMILES is read from it.
How the values were obtained:
[1] = tested on: Pseudomonas syringae pv. syringae, Xanthomonas axonopodis pv. vesicatoria, and Erwinia amylovora; details: cited from earlier work
From the text: Combinatorial chemistry constitutes a powerful tool to obtain peptides with improved biological activity against plant pathogens. In particular, we have employed this methodology to design and synthesize a library of cyclic decapeptides with general structure c(X5-Phe-X3-Gln) where X is Lys or Leu. Analysis of internal structural features together with a design of experiments (DOE) allowed establishing the sequence pattern for an optimal biological activity, i.e., c(X^1X^2X^3X^4LysPheLysLysLeuGln) where X^2 ≠ X^3 and X^4 = Lys. […] Cyclic peptides are preferred candidates due to their high conformational rigidity and proteolytic stability. In a previous work, a library of 66 Phe-containing cyclic decapeptides was synthesized from which sequences with high activity against E. amylovora, P. syringae pv. syringae, and X. axonopodis pv. vesicatoria were identified, highlighting c(LysLysLeuLysLysPheLysLysLeuGln) ... || The results obtained support the notion that subtle changes in a peptide sequence may lead to a significant modification of its biological activity. Thus, for example, the Phe→Trp substitution in the lead peptides c(LysLysLeuLysLysPheLysLysLeuGln) (BPC194) and c(LysLeuLysLysLysPheLysLysLeuGln) (BPC198) caused a reduction of the activity. […]

[2] = tested on: erythrocyte suspensions of human blood; experiment: Hemolytic activity, hemoglobin release; assay type: cell-based; details: human blood erythrocytes 5% v/v, absorbance 540 nm, percentage compared to melittin, three replicates; for Hemolysis (%) at 50 µM: peptide 50 μM (table prints 50 µM); for Hemolysis (%) at 125 µM: peptide 125 μM (table prints 125 µM)
Procedure: The hemolytic activity of the compounds was evaluated at 50 and 125 μM by determining hemoglobin release from erythrocyte suspensions of human blood (5% v/v) (Oxoid) using absorbance at 540 nm, as previously described. Three replicates for each peptide concentration were used.

[3] = tested on: Pseudomonas syringae pv. syringae EPS94; experiment: Antibacterial activity (MIC), in vitro growth inhibition; assay type: cell-based; details: Table S1, MIC range
In short: (§1)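 MIC determined by in vitro growth inhibition across 0.8, 1.6, 3.1, 6.2, 12.5, 25 and 50 μM peptide. Strains tested: E. amylovora PMV6076, P. syringae pv. syringae EPS94 and X. axonopodis pv. vesicatoria 2133-2.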

[4] = tested on: Erwinia amylovora PMV6076; experiment: as above; assay type: cell-based; details: Table S1, MIC range
In short: as §1

[5] = tested on: Xanthomonas axonopodis pv. vesicatoria 2133-2; assay type: cell-based; details: Table S1, MIC range
In short: as §1

In the case of cyclo(LKKKKFLLKQ) [BPC108], the “antibacterial activity in words, Phe peptides” value [1] is given as “poorly active”.

For cyclo(LKKKLFKKLQ) [BPC086], the “antibacterial activity in words, Phe peptides” value [1] is given as “poorly active”.

In the case of `CC(C)C[C@@H]1NC(=O)[C@H](CCCCN)NC(=O)[C@H](CCCCN)NC(=O)[C@H](CCC(N)=O)NC(=O)[C@H](CCCCN)NC(=O)[C@H](CCCCN)NC(=O)[C@H](CC(C)C)NC(=O)[C@H](Cc2c[nH]c3ccccc23)NC(=O)[C@H](CC(C)C)NC(=O)[C@H](CCCCN)NC1=O` [BPC130W, c(KKLKLWLKKQ)] (cyclo(KKLKLWLKKQ)), the “Hemolysis (%) at 50 µM” value [2] is reported as 1%, the “Hemolysis (%) at 125 µM” value [2] is reported as 2% and the “MIC Pss” value [3] is reported as 6.2 to 12.5 µM. The “MIC Ea” value [4] was 12.5 to 25 µM and the “MIC Xav” value [5] was 1.6 to 3.1 µM.

For `CC(C)C[C@@H]1NC(=O)[C@H](CCCCN)NC(=O)[C@H](CCCCN)NC(=O)[C@H](CC(C)C)NC(=O)[C@H](CC(C)C)NC(=O)[C@H](CCC(N)=O)NC(=O)[C@H](CCCCN)NC(=O)[C@H](CCCCN)NC(=O)[C@H](CCCCN)NC(=O)[C@H](Cc2c[nH]c3ccccc23)NC1=O` [BPC158W, c(LLKKLWKKKQ)] (cyclo(KKKQLLKKLW)), the “Hemolysis (%) at 50 µM” value [2] was 10%, the “Hemolysis (%) at 125 µM” value [2] was 14% and the “MIC Pss” value [3] was 12.5 to 25 µM. For the same compound, the “MIC Ea” value [4] was 12.5 to 25 µM and the “MIC Xav” value [5] was 1.6 to 3.1 µM.

For `CC(C)C[C@@H]1NC(=O)[C@H](CCC(N)=O)NC(=O)[C@H](CCCCN)NC(=O)[C@H](CCCCN)NC(=O)[C@H](CC(C)C)NC(=O)[C@H](Cc2c[nH]c3ccccc23)NC(=O)[C@H](CC(C)C)NC(=O)[C@H](CCCCN)NC(=O)[C@H](CCCCN)NC(=O)[C@H](CCCCN)NC1=O` [BPC134W, c(LKKKLWLKKQ)] (cyclo(KKKLWLKKQL)), the “Hemolysis (%) at 50 µM” value [2] was 3%, the “Hemolysis (%) at 125 µM” value [2] was 4% and the “MIC Pss” value [3] was 6.2 to 12.5 µM. The “MIC Ea” value [4] was 25 to 50 µM and the “MIC Xav” value [5] was 3.1 to 6.2 µM.

In the case of `CC(C)C[C@@H]1NC(=O)[C@H](CCCCN)NC(=O)[C@H](Cc2c[nH]c3ccccc23)NC(=O)[C@H](CC(C)C)NC(=O)[C@H](CC(C)C)NC(=O)[C@H](CCCCN)NC(=O)[C@H](CCCCN)NC(=O)[C@H](CCCCN)NC(=O)[C@H](CCC(N)=O)NC(=O)[C@H](CCCCN)NC1=O` [BPC110W, c(KKKLLWKLKQ)] (cyclo(KKKLLWKLKQ)), the “Hemolysis (%) at 50 µM” value [2] is reported as 3%, the “Hemolysis (%) at 125 µM” value [2] is reported as 4% and the “MIC Pss” value [3] is reported as 3.1 to 6.2 µM. The “MIC Ea” value [4] was 12.5 to 25 µM and the “MIC Xav” value [5] was 6.2 to 12.5 µM.

With `CC(C)C[C@@H]1NC(=O)[C@H](CCCCN)NC(=O)[C@H](CCCCN)NC(=O)[C@H](Cc2c[nH]c3ccccc23)NC(=O)[C@H](CC(C)C)NC(=O)[C@H](CCCCN)NC(=O)[C@H](CC(C)C)NC(=O)[C@H](CCCCN)NC(=O)[C@H](CCCCN)NC(=O)[C@H](CCC(N)=O)NC1=O` [BPC082W, c(KKLKLWKKLQ)] (cyclo(KKLKLWKKLQ)) the “Hemolysis (%) at 50 µM” value [2] was 26%, the “Hemolysis (%) at 125 µM” value [2] was 34% and the “MIC Pss” value [3] was 6.2 to 12.5 µM. The “MIC Ea” value [4] was 12.5 to 25 µM and the “MIC Xav” value [5] was 1.6 to 3.1 µM.

In the case of `CC(C)C[C@@H]1NC(=O)[C@H](CCCCN)NC(=O)[C@H](CCC(N)=O)NC(=O)[C@H](CC(C)C)NC(=O)[C@H](CC(C)C)NC(=O)[C@H](CCCCN)NC(=O)[C@H](Cc2c[nH]c3ccccc23)NC(=O)[C@H](CCCCN)NC(=O)[C@H](CCCCN)NC(=O)[C@H](CCCCN)NC1=O` [BPC066W, c(KLKKKWKLLQ)] (cyclo(KKKWKLLQKL)), the “Hemolysis (%) at 50 µM” value [2] is reported as 33%, the “Hemolysis (%) at 125 µM” value [2] is reported as 41% and the “MIC Pss” value [3] is reported as 6.2 to 12.5 µM. The “MIC Ea” value [4] was 6.2 to 12.5 µM and the “MIC Xav” value [5] was 6.2 to 12.5 µM.

With `CC(C)C[C@@H]1NC(=O)[C@H](CCCCN)NC(=O)[C@H](CCCCN)NC(=O)[C@H](Cc2c[nH]c3ccccc23)NC(=O)[C@H](CCCCN)NC(=O)[C@H](CCCCN)NC(=O)[C@H](CCCCN)NC(=O)[C@H](CC(C)C)NC(=O)[C@H](CC(C)C)NC(=O)[C@H](CCC(N)=O)NC1=O` [BPC098W, c(LLKKKWKKLQ)] (cyclo(KKKWKKLQLL)) the “Hemolysis (%) at 50 µM” value [2] was 12%, the “Hemolysis (%) at 125 µM” value [2] was 18% and below 20% and the “MIC Pss” value [3] was 3.1 to 6.2 µM. For the same compound, the “MIC Ea” value [4] was 12.5 to 25 µM and the “MIC Xav” value [5] was 1.6 to 3.1 µM.
